Six compounds from US9849083B2, “Sublingual administration of statins” (LondonPharma Ltd., priority 2011, dated 2017) can be followed below.

The nature of one data set: physchem. The following applies: aqueous with cosolvent or surfactant or cyclodextrin.
For data set [1] the following is noted: human, in vivo; for Tmax (median): male.
A short description of a further data set: clinical. The following applies: male, human, in vivo; for Tmax: Tmax (median).
Data set [2] can be described thus: Chemical stability / compatibility of the statin in formulations. The data set is classed as physicochemical.
Data set [3] is described as follows: Solubility of the statin in formulation carriers. The following applies: aqueous-based formulation, water.
A short description of data set [4]: Safety and tolerability in phase 1 trial of sublingual statin sprays. The data set is classed as in vivo, human. The following applies: all mild; simvastatin AE after 40 mg; fluvastatin with both doses. As to the method: The secondary objectives of this study were to: • establish the safety, tolerability, local tolerance and taste acceptance of the study medications
Safety was evaluated by adverse event (AE) monitoring, evaluation of any medically significant changes, based on physical examination findings, vital signs, and electrocardiograms (ECGs) assessments, clinical laboratory testing, local tolerance and taste acceptance.
Safety data was summarised by descriptive methods; continuous variables by summary statistics and categorical data by absolute and relative frequencies.

A short description of data set [5]: Phase 1 pharmacokinetic study of sublingual statin sprays in healthy male subjects. The following applies: for Tmax / AUC(0-inf) / AUC(0-t) / Cmax: male, human, plasma; for Tmax: Tmax (median); for Tmax / Tmax (median): sublingual spray, healthy male subjects, simvastatin acid measured after simvastatin spray.

What is called solubility is the concentration that dissolves in the medium under given conditions. Lower therefore signals little dissolved substance. Broadly, the AUC(0-inf) is total exposure, with the tail of the curve extrapolated. High values mean more exposure, low ones less exposure. One may read the AUC(0-t) as exposure summed from dosing to a finite time, without extrapolation to infinity. Low readings indicate less exposure, high ones more exposure. What is called Cmax is the highest concentration seen after dosing. Usually Vd/F stands for the volume of distribution divided by bioavailability. The half-life is the time in which the quantity being followed falls by half. Low readings indicate fast loss, high ones slow loss. In general, Tmax refers to the time from dosing to the highest level.

Where a name gives a salt, the structure may show the parent alone. Read-outs that look alike come from different tables or passages of the source. Some results are limits rather than exact numbers.

As to `CC(C)n1c(/C=C/C(O)CC(O)CC(=O)O)c(-c2ccc(F)cc2)c2ccccc21` (centres unmarked) [Fluvastatin (sodium salt), fluvastatin sodium], the solubility in the data set “physchem” was not below 25 mg/mL.
On to `CCC(C)(C)C(=O)O[C@H]1C[C@@H](C)C=C2C=C[C@H](C)[C@H](CC[C@@H](O)C[C@@H](O)CC(=O)O)[C@H]21` [Simvastatin Acid, simvastatin acid], for which the “CL/F (mean)” value in data set [1] (20 mg) was found to be 609.03 L/h. Further, in data set [1] (40 mg), the “CL/F (mean)” value was determined as 921.93 L/h. Also, in the data set “clinical” (20 mg), the AUC(0-inf) was 37.7 ng·h/mL, the AUC(0-t) amounted to 21.3 ng·h/mL, the peak concentration (Cmax) worked out at 6.1 ng/mL and the Vd/F amounted to 3960 L. Also, in the data set “clinical” (20 mg), the half-life was 344 min and the Tmax amounted to 2.19 h. In “clinical” (40 mg), this compound came in with an AUC(0-inf) of 47.6 ng·h/mL, an exposure AUC(0-t) of 32.5 ng·h/mL, a Cmax of 9.88 ng/mL and a Vd/F of 4760 L. In the data set “clinical” (40 mg), the half-life is 219 min and the Tmax was 3.88 h.
As to `CC[C@H](C)C(=O)O[C@H]1C[C@H](O)C=C2C=C[C@H](C)[C@H](CC[C@@H](O)C[C@@H](O)CC(=O)O)[C@H]21` [pravastatin sodium], the Reaction with ethanol result in data set [2] was “react with ethanol”. The same compound returned a solubility in data set [3] not below 150 mg/mL.
For `CC(C)n1c(/C=C/C(O)CC(O)CC(=O)O)c(-c2ccc(F)cc2)c2ccccc21` (centres unmarked) [Fluvastatin, fluvastatin], the “Treatment-emergent AEs reported” value in data set [4] is 5 related and 2 unrelated. In data set [1] (10 mg), the “CL/F (mean)” value is given as 376.22 L/h and the “Tmax (median)” value worked out at 33.6 min. Besides, in data set [1] (25 mg), the “CL/F (mean)” value was 363.21 L/h and the “Tmax (median)” value worked out at 34.2 min. In the data set “clinical” (10 mg), the AUC(0-inf) was 37.2 ng·h/mL, the AUC(0-t) is 36.3 ng·h/mL, the highest level (Cmax) was 34.2 ng/mL and the half-life is 70.8 min. Also, in “clinical” (10 mg), the Tmax was approximately 0.5 h. Besides, in the data set “clinical” (25 mg), the AUC(0-inf) turned out to be 91.7 ng·h/mL, the AUC(0-t) worked out at 89.9 ng·h/mL, the Cmax was determined as 88 ng/mL and the half-life was 84 min. The Tmax in the data set “clinical” (25 mg) was approximately 0.5 h.
As to `CCC(C)(C)C(=O)O[C@H]1C[C@@H](C)C=C2C=C[C@H](C)[C@H](CC[C@@H]3C[C@@H](O)CC(=O)O3)[C@H]21` [Simvastatin, simvastatin], the “Treatment-emergent AEs reported” value in data set [4] is reported as “one”. Moreover, the “CL/F (mean)” value in data set [1] (20 mg) amounted to 744.33 L/h; in data set [1] (40 mg) it was 764.67 L/h. Also, the Vd/F in “clinical” (20 mg) was 1980 L; in the data set “clinical” (40 mg), 2070 L. In addition, the half-life in “clinical” (20 mg) is 108 min; in the data set “clinical” (40 mg), 114 min. For the same compound, the Tmax in data set [5] (20 mg, 20 mg) is 1.88 h; in data set [5] (40 mg, 40 mg), 1.88 h.
For `CC[C@H](C)C(=O)O[C@H]1C[C@H](O)C=C2C=C[C@H](C)[C@H](CC[C@@H](O)C[C@@H](O)CC(=O)O)[C@H]21` [Pravastatin, pravastatin], the “Treatment-emergent AEs reported” value in data set [4] is “none”. Moreover, the “CL/F (mean)” value in data set [1] (20 mg) turned out to be 685.48 L/h; in data set [1] (40 mg), 820.32 L/h. In addition, the results for the half-life in “clinical” (20 mg) and in the data set “clinical” (40 mg) were 94.8 min and 79.2 min, respectively. Besides, the area under the curve AUC(0-inf) was 31.2 ng·h/mL in data set [5] (20 mg) and 80.6 ng·h/mL in data set [5] (40 mg). The AUC(0-t) in data set [5] (20 mg) was found to be 30 ng·h/mL; in data set [5] (40 mg), 78.8 ng·h/mL. Also, the Cmax amounted to 12.3 ng/mL in data set [5] (20 mg) and 44.5 ng/mL in data set [5] (40 mg). In addition, the Tmax came to 1.3 h in data set [5] (20 mg, 20 mg) and 1.3 h in data set [5] (40 mg, 40 mg). Further, the “Tmax (median)” value in data set [5] (20 mg) is 1.33 h; in data set [5] (40 mg), 1.29 h.
